Literature values as cited in patent publication US10328118B2, “High purity oritavancin and method of producing same” (priority 2014, dated 2019).
Read-outs that look alike come from different tables or passages of the source.

Row | Molecule | teratogenicity (animal models; animal models) | “red man” syndrome (histamine-like response) during infusion (subjects; rapid infusion into subjects) | teratogenicity (animal models; in vivo) | “red man” syndrome (histamine-like response) during infusion (subjects; in vivo)
1 | CN[C@H](CC(C)C)C(=O)N[C@H]1C(=O)N[C@@H](CC(N)=O)C(=O)N[C@H]2C(=O)N[C@H]3C(=O)N[C@H](C(=O)N[C@H](C(=O)O)c4cc(O)cc(O)c4-c4cc3ccc4O)[C@H](O)c3ccc(c(Cl)c3)Oc3cc2cc(c3O[C@@H]2O[C@H](CO)[C@@H](O)[C@H](O)[C@H]2O[C@H]2C[C@](C)(N)[C@H](O)[C@H](C)O2)Oc2ccc(cc2Cl)[C@H]1O [vancomycin] | non-teratogenic | associated with the “red man” syndrome | – | –
2 | teicoplanin | – | – | non-teratogenic | not seen
